Data from patent US11058685B2, “Therapeutic agent for tumors identified by phosphorylation of proto-oncogene protein belonging to VAV family” (priority 2016, dated 2021).

What was measured:
VAV1 [1] = assay: VAV1 Y174 phosphorylation in Jurkat cells expressing VAV1 mutant, anti-CD3 stimulation; assay type: cell-based, human; settings: dasatinib 0 to 10 nM, 30 minutes, FIG. 15
[2] = system: angioimmunoblastic T-cell lymphoma (AITL) model mice; assay: AITL therapeutic transplant model: nude mice injected with donor mouse swollen lymph node-derived cells; assay type: in vivo
Method: An AITL model is regarded as having been established, but a long incubation period is required to observe oncogenesis after pIpC administration. For this reason, this genetically modified mouse model is not suitable for use in therapeutic experiments. Thus, an attempt was made to establish a transplant model. […] It should be noted that inflammatory cells migrating to the tumor tissue were composed of donor mouse-derived cells and host mouse-derived cells in admixture.
Donor mouse swollen lymph node-derived cells (2×10^7 cells) were all intraperitoneally injected into nude mice and, after 2 weeks (after lymph node swelling was observed by echography in some mice), 5 mg/kg of dasatinib dissolved in a solution of propylene glycol:distill water adjusted to 1:1 was orally administered to the mice for successive 14 days (the dasatinib group: “Dasatinib” in FIG. 17). As a control, nude mice under completely the same conditions were administered with the same volume of the solution alone (propylene glycol: distill water=1:1) according to the same schedule (the control group: “Vehicle” in FIG. 17). The results of these administration experiments are show in FIG. 17.

phosphorylated VAV1 = assay: Anti-phosphorylated VAV1 staining of swollen lymph node sections of AITL transplant model mice; assay type: in vivo, mouse; settings: nude mice; dasatinib three times daily for 2 days, 2 weeks after cell injection; sacrificed on the following day
Method: In addition, donor mouse swollen lymph node-derived cells (2×10^7 cells) were all intraperitoneal injected into nude mice and, after 2 weeks, dasatinib or a control solution was administered three times daily for 2 days in accordance with the above procedure. On the following day, the nude mice were sacrificed, and thin section specimens were prepared from their swollen lymph nodes and then stained with anti-phosphorylated VAV1 antibody.

VAV1 [3] = assay: VAV1 Y174 phosphorylation (Western blot) in Jurkat cells expressing G17V RHOA mutant, anti-CD3 stimulation; assay type: cell-based, human; settings: dasatinib 0 to 10 nM, 30 minutes, FIG. 7(A)
Method: (§1) (1) Jurkat cells (T-cell leukemia cell line) engineered with a lentivirus-mediated Tet-On system to express wild-type RHOA cDNA or a RHOA coding region modified to comprise a G to T substitution at position 50 of the coding region (hereinafter referred to as G17V RHOA cDNA) were seeded in RPMI (10% FCS, 1% PS) at 2×10^5 cells/mL in 15 cm petri dishes in triplicate. Doxycycline was added to give a final concentration of 2 μg/mL. On the following day, the cells were collected and centrifuged, and then seeded in RPMI (serum-free) at 6×10^5 cells/mL in 15 cm petri dishes in triplicate. After 4 hours, the cells were collected and washed once with sterile phosphate buffered saline (PBS), and then adjusted to 2×10^4 cells/ml and transferred to 15 ml tubes, followed by incubation at 37° C. for 5 minutes. LEAF™ purified anti-human CD3 Ab (BioLegend) and anti-mouse IgG antibody Ab (at 2 μg/ml each) were added. The cells were incubated at 37° C. for 5 minutes or 30 minutes. Cold PBS (10 ml) was added to each tube, followed by centrifugation to remove the supernatants. Lysis buffer (supplemented in advance with complete protease inhibitor and PhosSTOP) was added in a volume of 1000 μl/tube. The tubes were incubated on ice for 20 minutes and centrifuged to collect the supernatants. Laemuli's buffer and DTT were added, followed by incubation at 95° C. for 5 minutes. […]

PLC-gamma 1 = PLC-gamma 1 phosphorylation (Western blot) in Jurkat cells expressing G17V RHOA mutant; assay type: cell-based, human; settings: dasatinib 0 to 10 nM, 30 minutes, FIG. 7(B)
Method: as §1

[4] = system: interleukin-2 mRNA expression; assay: Interleukin-2 mRNA expression in Jurkat cells expressing G17V RHOA mutant, CD3/CD28 bead stimulation; assay type: cell-based, human; settings: dasatinib 0 to 10 nM, CD3/CD28 beads, 3 hours, FIG. 8
Method: Dynabeads T-activator CD3/CD28 (Veritas) were mixed with buffer (PBS supplemented with 0.1% BSA+2 mM EDTA, pH 7.4) and allowed to stand on a magnetic rack to remove the supernatant.
Jurkat cells engineered with a lentivirus-mediated Tet-On system to express wild-type or G17V RHOA cDNA were seeded in RPMI (10% FCS, 1% PS) at 2×10^5 cells/mL in 15 cm petri dishes in triplicate. Doxycycline was added to give a final concentration of 2 μg/mL. On the following day, the cells were collected and seeded in a 24-well plate. The Dynabeads T-activator CD3/CD28 (Veritas) washed above were added. After 3 and 6 hours, the cells were collected. The cells were washed once with PBS and their RNA was extracted with an RNeasy Mini Kit (Qiagen). […] IL-2 mRNA was measured with the primer/probe sets of Taqman Gene Expression Assays (Thermo Fisher Scientific). rRNA was measured with TaqMan® Ribosomal RNA Control Reagents (Thermo Fisher Scientific) and used for correction.
Jurkat cells engineered with a lentivirus-mediated Tet-On system to express wild-type RHOA or G17V RHOA cDNA were seeded in RPMI (10% FCS, 1% PS) at 2×10^5 cells/mL in 15 cm petri dishes in triplicate. […] IL-2 mRNA was measured with the primer/probe sets of Taqman Gene Expression Assays (Thermo Fisher Scientific). rRNA was measured with TaqMan® Ribosomal RNA Control Reagents (Thermo Fisher Scientific) and used for correction.

NFAT activity = assay: NFAT luciferase reporter activity in Jurkat cells expressing VAV1 mutant; assay type: cell-based, human; settings: dasatinib 0 to 10 nM, 30 minutes, anti-CD3 stimulation, FIG. 16
Method: In accordance with the protocol of Dual Luciferase Reporter Assay (Promega), firefly luciferase activity and renilla luciferase activity were each measured, and the value of firefly luciferase was divided by the value of renilla luciferase to correct the transfection efficiency. In more detail, the cells were mixed with Passive Lysis Buffer (PLB) in a volume of 100 μl/tube, followed by freezing at −80° C. to lyse the cells. After centrifugation, the supernatants were collected. In a 96-well plate. LARII was dispensed in a volume of 100 μl/well. 20 μl of each cell lysate was added. The plate was mounted on a luminometer and Stop & Glo® Reagent was added in 100 μL volumes, followed by measurement again with the luminometer.
In a 96-well flat-bottomed plate, LEAF™ purified anti-human CD3 Ab (BioLegend) adjusted to 10 μg/ml with PBS was dispensed in a volume of 50 μL/well and incubated overnight at 4° C. After removal of the antibody solution, each well was washed three times with sterile PBS.
Jurkat cells were seeded at 5×10^4 cells/well in a 24-well plate. […] After 30 minutes, the cells were collected and then stimulated with LEAF™ purified anti-human CD3 Ab (BioLegend) and measured for firefly luciferase activity and renilla luciferase activity by reference to Example 3 described above, etc.

[5] = 5 mg/kg orally for successive 14 days, FIG. 17

Cc1nc(Nc2ncc(C(=O)Nc3c(C)cccc3Cl)s2)cc(N2CCN(CCO)CC2)n1 [dasatinib, N-(2-chloro-6-methyl-phenyl)-2-[[6-[4-(2-hydroxyethyl)-1-piperazinyl]-2-methyl-4-pyrimidinyl]amino]-5-thiazolecarboxamide]
enhanced Y174 phosphorylation induced by VAV1 mutant expression (VAV1 [1]): cancels the enhanced Y174 phosphorylation
mice showing progression of lymphoma (body weight loss and hyposthenia) ([2]; 5 mg/kg orally for successive 14 days starting 2 weeks after cell injection, observation period of 150 days, 6/18): 33.3%
progression of lymphoma versus control group [2, 5]: progression was significantly suppressed
survival versus control group [2, 5]: survival was prolonged
phosphorylated VAV1 staining in swollen lymph nodes (phosphorylated VAV1): phosphorylated VAV1 was not stained
enhanced Y174 phosphorylation (VAV1) induced by G17V RHOA mutant expression (VAV1 [3]): cancels the enhanced Y174 phosphorylation
enhanced PLC-gamma 1 phosphorylation induced by G17V RHOA mutant expression (PLC-gamma 1): cancels the enhanced PLC-gamma 1 phosphorylation
enhanced interleukin-2 mRNA expression induced by G17V RHOA mutant expression [4]: cancels the enhanced interleukin-2 mRNA expression
enhanced NFAT activity induced by VAV1 mutant expression (NFAT activity): cancels the enhanced NFAT activity
